Assay results: PMC6522510 (Nature Communications, 2019)
Like-named read-outs stand apart in the source and are kept apart here.

How the values were obtained:
U937 [1] = assay: cells; design: species or system AML cell lines (8); conditions: Homo sapiens, U-937, 72 h, read-out: U937
CMS [2] = assay: Secondary dose-response HTS, Cell Titer Glo; assay type: cell-based, human; conditions: for EC50: Homo sapiens, HTS, read-out: average effective concentration, CMS
M07e [3] = assay: cells; design: species or system AML cell lines (8); conditions: M-07e, 72 h, read-out: M07e
MV4-11 [4] = assay: Secondary dose-response HTS, Cell Titer Glo; assay type: cell-based, human; conditions: secondary high-throughput screen, MV4-11; for EC50: Homo sapiens, read-out: average effective concentration, MV4-11
CHRF288-11 [5] = assay: cells; design: species or system AML cell lines (8); conditions: 72 h, read-out: CHRF288-11
MOLM-13 [6] = assay: cells; design: species or system AML cell lines (8); Secondary HTS, 10-point dose-response in triplicate, Cell Titer Glo viability, four-parameter fit EC50; conditions: Homo sapiens; 72 h cell viability; read-out: MOLM-13
CMK [7] = assay: cells; design: species or system AML cell lines (8); conditions: Homo sapiens, 72 h, read-out: CMK
M07e [8] = assay: Secondary dose-response HTS, Cell Titer Glo; assay type: cell-based, human; conditions: secondary high-throughput screen
ML-2 = assay: cells; design: species or system AML cell lines (8); conditions: Homo sapiens, ML-2, 72 h, read-out: ML-2
ML2 = assay: Secondary dose-response HTS, Cell Titer Glo; assay type: cell-based, human; conditions: secondary high-throughput screen, ML-2; for EC50: Homo sapiens, read-out: average effective concentration, ML-2
U937 [9] = assay: Secondary dose-response HTS, Cell Titer Glo; assay type: cell-based, human; conditions: secondary high-throughput screen, U937
CMK [10] = assay: Secondary dose-response HTS, Cell Titer Glo; assay type: cell-based, human; conditions: secondary high-throughput screen, CMK
MOLM-13 [11] = assay: Secondary dose-response HTS, Cell Titer Glo; assay type: cell-based, human; conditions: secondary high-throughput screen, MOLM-13; for EC50: Homo sapiens, read-out: average effective concentration, MOLM-13
CHRF288-11 [12] = assay: Secondary dose-response HTS, Cell Titer Glo; assay type: cell-based, human; conditions: secondary high-throughput screen; CHRF288-11
CMS [13] = assay: cells; design: species or system AML cell lines (8); conditions: 72 h, read-out: CMS
MV4-11 [14] = assay: cells; design: species or system AML cell lines (8); conditions: Homo sapiens, MV4-11, 72 h, read-out: MV4-11
[15] = system: FLT3-ITD+ primary AML blast samples
[16] = system: AMKL primary AML blast samples; assay: Ex vivo drug treatment of primary AML blasts on mesenchymal stromal cells; assay type: cell-based; conditions: Homo sapiens; primary blasts on MSC, 96 h
[17] = system: MLLr primary AML blast samples; assay: as above; assay type: cell-based; conditions: Homo sapiens; primary blasts on MSC, 96 h, range over patient samples
CHRF288-11 [18] = assay: cells; design: species or system AML cell lines (8); Secondary HTS, 10-point dose-response in triplicate, Cell Titer Glo viability, four-parameter fit EC50; conditions: 72 h, read-out: CHRF288-11
MOLM-13 [19] = assay: cells; design: species or system AML cell lines (8); Secondary HTS, 10-point dose-response in triplicate, Cell Titer Glo viability, four-parameter fit EC50; conditions: Homo sapiens, MOLM-13, 72 h, read-out: MOLM-13
U937 [20] = assay: cells; design: species or system AML cell lines (8); Secondary HTS, 10-point dose-response in triplicate, Cell Titer Glo viability, four-parameter fit EC50; conditions: Homo sapiens, U-937, 72 h, read-out: U937
CMK [21] = assay: cells; design: species or system AML cell lines (8); Secondary HTS, 10-point dose-response in triplicate, Cell Titer Glo viability, four-parameter fit EC50; conditions: Homo sapiens, CMK, 72 h, read-out: CMK
MV4-11 [22] = assay: cells; design: species or system AML cell lines (8); Secondary HTS, 10-point dose-response in triplicate, Cell Titer Glo viability, four-parameter fit EC50; conditions: Homo sapiens, MV4-11, 72 h, read-out: MV4-11
M07e [23] = assay: cells; design: species or system AML cell lines (8); Secondary HTS, 10-point dose-response in triplicate, Cell Titer Glo viability, four-parameter fit EC50; conditions: M-07e, 72 h, read-out: M07e
CMS [24] = assay: cells; design: species or system AML cell lines (8); Secondary HTS, 10-point dose-response in triplicate, Cell Titer Glo viability, four-parameter fit EC50; conditions: 72 h, read-out: CMS
[25] = secondary high-throughput screen, CMS

## COC1=CC(=O)O[C@@H](/C=C/c2ccc3c(c2)OCO3)C1 [METHYSTICIN]
U937 [1]
  EC50: > 10 µM
CMS [2]; [25]
  average effective concentration, CMS: Inactive
M07e [3]
  EC50: > 10 µM
MV4-11 [4]
  average effective concentration, MV4-11: Inactive
CHRF288-11 [5]
  EC50: > 10 µM
MOLM-13 [6]
  EC50: > 10 µM
CMK [7]
  EC50: > 10 µM
M07e [8]; […]
  average effective concentration, M07e: Inactive
ML-2
  EC50: > 10 µM
ML2
  average effective concentration, ML-2: Inactive
U937 [9]
  average effective concentration, U937: Inactive
CMK [10]
  average effective concentration, CMK: Inactive
MOLM-13 [11]
  average effective concentration, MOLM-13: Inactive
CHRF288-11 [12]
  average effective concentration, CHRF288-11: Inactive
CMS [13]
  EC50: > 10 µM
MV4-11 [14]
  EC50: > 10 µM

## CC(=O)c1c(C)c2cnc(Nc3ccc(N4CCNCC4)cn3)nc2n(C2CCCC2)c1=O [Palbociclib, reference compound]
[15]
  IC50: 0.979 to 5.26 µM
CMS [2]; [25]
  EC50: 9.1 µM
[16]
  IC50: 5.17 µM
U937 [9]; Homo sapiens, U-937, read-out: average effective concentration, U937
  EC50: 10 µM
CMK [10]; Homo sapiens, read-out: average effective concentration, CMK
  EC50: 3.5 µM
[17]
  IC50: 1.11 to 4 µM

## CCOc1cc(C(C)(C)C)ccc1C1=N[C@@](C)(c2ccc(Cl)cc2)[C@@](C)(c2ccc(Cl)cc2)N1C(=O)N1CCN(CCCS(C)(=O)=O)CC1 [RG7112, reference compound]
[15]
  IC50: 0.077 to 0.952 µM
MV4-11 [4]
  EC50: 2.5 µM
M07e [8]; Homo sapiens, M-07e, M07e, read-out: average effective concentration, M07e
  EC50: > 10 µM
ML2
  EC50: 6.8 µM
MOLM-13 [11]
  EC50: 0.29 µM
[17]
  IC50: 0.149 to 0.845 µM

## Cn1c(COP(=O)(NCCBr)NCCBr)cnc1[N+](=O)[O-] [TH-302]
U937 [1]
  EC50: > 10 µM
CMS [2]; [25]
  average effective concentration, CMS: Inactive
M07e [3]
  EC50: > 10 µM
MV4-11 [4]
  average effective concentration, MV4-11: Inactive
CHRF288-11 [5]
  EC50: > 10 µM
MOLM-13 [6]
  EC50: > 10 µM
CMK [7]
  EC50: > 10 µM
M07e [8]; […]
  average effective concentration, M07e: Inactive
ML-2
  EC50: > 10 µM
ML2
  average effective concentration, ML-2: Inactive
U937 [9]
  average effective concentration, U937: Inactive
CMK [10]
  average effective concentration, CMK: Inactive
MOLM-13 [11]
  average effective concentration, MOLM-13: Inactive
CHRF288-11 [12]
  average effective concentration, CHRF288-11: Inactive
CMS [13]
  EC50: > 10 µM
MV4-11 [14]
  EC50: > 10 µM

## Cn1ncnc1[C@H]1c2n[nH]c(=O)c3cc(F)cc(c23)N[C@@H]1c1ccc(F)cc1 [Talazoparib]
[15]
  IC50: 1.98 to 2.46 µM

## CC(=O)Nc1cccc(-n2c(=O)n(C3CC3)c(=O)c3c(Nc4ccc(I)cc4F)n(C)c(=O)c(C)c32)c1 [Trametinib]
[15]
  IC50: 0.13 to 5.31 µM
CHRF288-11 [18]
  EC50: > 10 µM
MOLM-13 [19]
  EC50: > 10 µM
U937 [20]
  EC50: > 10 µM
CMK [21]
  EC50: > 10 µM
MV4-11 [22]
  EC50: > 10 µM
ML2
  EC50: 0.001 µM
M07e [23]
  EC50: > 10 µM
[17]
  IC50: 0.0016 to 1.47 µM
CMS [24]
  EC50: > 10 µM

## CC1(C)CCC(CN2CCN(c3ccc(C(=O)NS(=O)(=O)c4ccc(NCC5CCOCC5)c([N+](=O)[O-])c4)c(Oc4cnc5[nH]ccc5c4)c3)CC2)=C(c2ccc(Cl)cc2)C1 [Venetoclax, reference compound]
[15]
  IC50: 0.0032 to 0.016 µM
CMS [2]
  EC50: > 10 µM
MV4-11 [4]
  EC50: 0.001 µM
M07e [8]; M07e
  average effective concentration, M07e: Inactive
ML2
  average effective concentration, ML-2: Inactive
U937 [9]
  average effective concentration, U937: Inactive
CMK [10]
  average effective concentration, CMK: Inactive
MOLM-13 [11]
  EC50: > 10 µM
CHRF288-11 [12]
  average effective concentration, CHRF288-11: Inactive
[17]
  IC50: 0.046 to 1.05 µM

## O=C(CCCCCCC(=O)Nc1ccccc1)NO [Vorinostat, reference compound]
[15]
  IC50: 0.304 to 2.89 µM
MV4-11 [4]
  EC50: 0.79 µM
